SMILES strings stand for the structures. pEC50: −log10 of the molar value. Structures can show the parent of a compound that is named as a salt.

In this assay the test system is HeLa cells. Put plainly: Doxorubicin-induced G2M checkpoint abrogation HeLa cell-based Acumen assay (pHH3). Particulars: 125 nM doxorubicin, 7 h compound. The protocol: An inhibitor of Chk1 will disable the G2M DNA damage checkpoint in p53-minus tumor cells treated with the topoisomerase II inhibitor, doxorubicin. A measurement of G2M checkpoint abrogation is the phosphorylation of histone H3 on serine 10 that occurs after cells traverse the G2M checkpoint and enter mitosis. The following high content imaging assay can be used to measure the phosphorylation histone H3 in cells. HeLa cells are cultured in MEM Media supplemented with 10% (v/v) FBS and plated at 2000 cells per well in poly D-lysine coated clear bottom black plates, 100 μL volume per well. Plates are then incubated in a cell culture incubator for 18-24 h (37° C., 5% CO2 and 95% relative humidity), Following the initial incubation, 20 μL of MEM Media plus 10% FBS containing […] doxorubicin are added to the appropriate wells of the plates resulting in a final concentration of 125 nM. The plates are returned to the incubator for 24 h, sufficient to arrest the cells at the G2M checkpoint. The next day the cells are treated 1.0 with compounds. Compounds are solubilized at […] in 100% DMSO and then diluted to a 10× stock starting at 50 μM in MEM plus 4% (v/v) DMSO. Subsequently, serial dilutions of the compounds (1:2) are prepared over a 50 μM to 0.39 μM range. Thirteen μL of compound stock is added to the appropriate wells in the plate to produce a final DMSO concentration of 0.4% and a final compound concentration range between 5 and 0.039 μM. […] Plates are scanned with ACUMEN EXPLORER™ Laser-scanning fluorescence microplate cytometers using 488 nm excitation (TTP LABTECH LTC) to measure pHH3 and DNA content including 2N, and 4N, The pHH3 positive cells are identified by mean intensity at 519 nm from Alexa 488. […] The final readout for each population is determined by normalizing to the % of total cells producing a final assay output of % pHH3, % 2N, and % 4N. 100% activity is then determined by treating cells with the maximum concentration of an inhibitor control compound at 100 nM to determine the final % activity of each compound. […]

`COc1nc(C)ccc1-c1cc(Nc2cncc(O[C@@H]3CCCNC3)n2)[nH]n1` [Example 1, (R)-[5-(2-Methoxy-6-methyl-pyridin-3-yl)-2H-pyrazol-3-yl]-[6-(piperidin-3-yloxy)-pyrazin-2-yl]-amine]: where the note is “Homo sapiens, HeLa, 7 h”, the negative-log EC50 (pEC50) is 7.54.

`COc1nc(C)ccc1-c1cc(Nc2cncc(O[C@@H]3CCCNC3)n2)[nH]n1` [Example 3, (R)-[5-(2-Methoxy-6-methyl-pyridin-3-yl)-2H-pyrazol-3-yl]-[6-(piperidin-3-yloxy)-pyrazin-2-yl]-amine acetic acid salt]: under “acetic acid salt”, the pEC50 was 7.72.
